Source: patent publication US20160299147A1, “SCREENING, DIAGNOSIS, PROGNOSTICATION AND TREATMENT OF OVARIAN CANCER” (AFG TECHNOLOGIES S.À.R.L., priority 2013, published 2016)

Legend:
Assay type in all cases: cell-based
Caov-3 cells [1] = assay: XTT viability assay in Caov-3 cells
Procedure: Caov-3 or Ovcar-3 cells were plated at a density of 1×10^4 cells per well into a 96-well tissue culture plate. The cell number was determined using the Countess™ automated cell counter (Life Technologies). Where indicated paclitaxel and IGF-1 were added. The final volume of the tissue culture medium was 0.1 ml. Prior to the experiment for each 96 well plate, 5 ml XTT solution and 0.1 ml activation reagent (New England Biolabs; Cat. No. 9095S) were mixed. 50 μl of the activated solution was added to each well and incubated at 37° C. for 4 hrs. The plates were shaken gently to evenly distribute the dye in the wells. After the 4 hrs incubation the absorbance of the samples was measured using a Spectramax M5e plate reader (Molecular Devices; Mod. No. M5e) at a wavelength of 450 nm.

Ovcar-3 cells [2] = assay: Mitotic phase distribution analysis (H3S10ph immunostaining) in Ovcar-3 cells; settings: 100 ng/ml IGF-1 for 48 hrs, vs untreated, p=0.055
Ovcar-3 cells [3] = assay: Invasion assay (Matrigel Boyden chamber) in Ovcar-3 cells; settings: 100 ng/ml IGF-1, vs untreated, n=2
Procedure: FBS (10%) mediated cell migration through an extracellular matrix was measured by Boyden chamber assay [(BD Biocoat™ Matrigel invasion chamber) BD Biosciences; Cat. No. 354480)] following the manufacturer's instructions. Briefly, Caov-3 cells were transfected with PAPPA siRNA or control siRNA (negative control) as described above. Caov-3 cells were treated with IGFR blocking antibody or untreated as described previously. Ovcar-3 cells were treated with IGF-1 or untreated as described previously. Prior to transfections or treatments the cells were serum starved for 24 hrs. Caov-3 cells were collected in DMEM medium containing 5% BSA, counted and 0.5×10^5 cells were added to each invasion assay chamber. Ovcar-3 cells were collected in RPMI medium containing 5% BSA, counted and 2×10^5 cells were added to each invasion assay chamber. After incubation for 48 hrs the invasion chamber inserts were washed with PBS, fixed in 4% formaldehyde for 5 min, stained with 0.01% crystal violet or haematoxylin and cells from random areas on the filters were counted.

Ovcar-3 cells [4] = assay: XTT viability assay in Ovcar-3 cells; settings: 25 nM paclitaxel for 24 hrs (5x the concentration used in Caov-3)
Procedure: Caov-3 cells (ATCC® HTB-75™) were cultured in DMEM (Life Technologies; Cat. No. 31966-021) supplemented with 10% FBS (Life Technologies; Lot #41Q822OK) and GlutaMAX™ (Life Technologies; Cat. No. 35050-038). Ovcar-3 cells (ATCC® HTB-161™) were cultured in RPMI 1640 (LGC Standards; Cat. No. 30-2001) supplemented with 20% FBS (Life Technologies) and 10 μg/ml bovine insulin (Sigma Aldrich, Cat. No. 10516). Cells were cultured at 37° C. with 5% CO2 and ≧95% humidity. Cells were harvested following incubation with TrypLE™ Express (Life Technologies; Cat. No. 126005-010). Cell density and viability were determined by trypan blue exclusion using a Countess® Automated Cell Counter (Life Technologies; Mod No. C10281). […] Where indicated, Caov-3 cells were treated with 100 ng/ml IGFR blocking antibody (Millipore; Lot #30080) for 24 hrs, 100 ng/ml IGF-1 (Life Technologies; Lot #73159414A) for 48 hrs or 5 nM paclitaxel (Taxol® Sigma Aldrich; Lot #091M1781V) for 24 hrs. Ovcar-3 cells, where indicated, were treated with 100 ng/ml IGF-1 for 48 hrs or 25 nM paclitaxel for 24 hrs. […] The cell number was determined using the Countess™ automated cell counter (Life Technologies). […] After the 4 hrs incubation the absorbance of the samples was measured using a Spectramax M5e plate reader (Molecular Devices; Mod. No. M5e) at a wavelength of 450 nm.

Caov-3 cells [5] = assay: Apoptotic DNA ladder detection in Caov-3 cells; settings: 5 nM paclitaxel for 24 hrs
Procedure: Caov-3 cells (ATCC® HTB-75TM) were cultured in DMEM (Life Technologies; Cat. No. 31966-021) supplemented with 10% FBS (Life Technologies; Lot #41Q822OK) and GlutaMAXTM (Life Technologies; Cat. No. 35050-038). […] Cells were cultured at 37° C. with 5% CO2 and ≧95% humidity. Cells were harvested following incubation with TrypLETM Express (Life Technologies; Cat. No. 126005-010). Cell density and viability were determined by trypan blue exclusion using a Countess® Automated Cell Counter (Life Technologies; Mod No. C10281). […] Where indicated, Caov-3 cells were treated with 100 ng/ml IGFR blocking antibody (Millipore; Lot #30080) for 24 hrs, 100 ng/ml IGF-1 (Life Technologies; Lot #73159414A) for 48 hrs or 5 nM paclitaxel (Taxol® Sigma Aldrich; Lot #091M1781V) for 24 hrs. Ovcar-3 cells, where indicated, were treated with 100 ng/ml IGF-1 for 48 hrs or 25 nM paclitaxel for 24 hrs. Caov-3 or Ovcar-3 cells were plated into [MUT]^2 culture flasks in a volume of 25 ml. The cells were seeded at 1×10^6 cells per flask as determined using the CountessTM automated cell counter (Life Technologies). Where indicated paclitaxel, IGF-1, or IGF-1+paclitaxel were added. […] DNA was resuspended in 30 μl nuclease-free water (Ambion; Cat. No. AM9937) and was quantified using a NanoVue Plus Spectrophotometer (GE Healthcare). […]

Row | Molecule | cell viability (XTT assay) (Caov-3 cells [1]; 100 ng/ml IGF-1 for 48 hrs, added alone) | mitotic delay (mitotic cells in prophase/prometaphase) (Ovcar-3 cells [2]) | invasiveness (number of invading cells, Boyden chamber assay) (Ovcar-3 cells [3]) | cell viability (XTT assay) (Caov-3 cells [1]; 5 nM paclitaxel for 24 hrs) | response to paclitaxel treatment (morphology, XTT viability, apoptosis) (Ovcar-3 cells [4]) | apoptosis (DNA apoptosis kit) (Caov-3 cells [5])
1 | IGF-1: insulin-like growth factor-1, recombinant, exogenously added (Life Technologies); IGF-1 receptor agonist | no effect | decrease | reduced |  |  | 
2 | CC(=O)O[C@H]1C(=O)[C@@]2(C)[C@H]([C@H](OC(=O)c3ccccc3)[C@]3(O)C[C@H](OC(=O)[C@H](O)[C@@H](NC(=O)c4ccccc4)c4ccccc4)C(C)=C1C3(C)C)[C@]1(OC(C)=O)CO[C@@H]1C[C@@H]2O [paclitaxel] |  |  |  | decreased | not responding | induction of apoptosis
